In patent US10793514B2, “Glutamine transport inhibitors and methods for treating cancer” (Vanderbilt University, priority 2016, dated 2020):

How the values were obtained:
[1] = tested on: HT29 cells; assay: Glutathione and reactive oxygen species in HT29 cells; assay type: cell-based, human; conditions: 48 h
Procedure: Glutathione levels were measured using a commercially available kit (Cayman Chemical 703002) according to the manufacturers protocol. Concurrently ROS was measured in cells using CM-H2DCFDA (Life Technologies C6827) coupled with flow cytometry in accordance with the manufacturers protocol. The assay was replicated replicated at least three times, technically and biologically. Significance was calculated using a t-test in Graphpad Prism. Error is reported as standard deviation (SD).

[2] = V-9302 concentration in whole blood with time; assay type: in vivo, mouse; conditions: single dose 75 mg/kg, healthy mice
Procedure: Liquid chromatography-tandem mass spectroscopy (LC-MS/MS) analyses were performed via reverse phase chromatography using a Shimadzu Nexera X2 UPLC (Columbia, Md.) coupled with a QTrap® 5500 (Sciex, Framinghman, MA, USA). […] Blank samples were made using fresh whole blood applied to Mitra® Microsamplers and allowed to dry for at least 24 h. All data were collected using Sciex Analyst 1.6.2 software and analyzed with MultiQuant 3.0 software. Error is reported as standard deviation (SD).

[3] = tested on: HCC1806 and HT29 cells; assay: Autophagic flux (CYTO-ID); assay type: cell-based, human
Procedure: Autophagic flux was measure using the CYTO-ID autophagy detection kit (Enzo Life Sciences ENZ-51031). HCC1806 and HT29 cells were seeded in 96 well plates the day before the experiment. […] Following treatment, cells were gently washed with assay buffer followed by addition of the dual color detection solution and incubation at 37° C. for 30 min. The plate was analyzed on a fluorescence microplane reader (BioTek Synergy 4).

[4] = tested on: HCC1806 cell line xenograft; assay: [18F]-4F-glutamine PET imaging; assay type: in vivo, mouse; conditions: single dose 75 mg/kg, 4 h
Procedure: Animal handling methods for PET imaging studies were conducted as reported^5,42 Prior to imaging, animals were allowed to acclimate to facility environment for at least 1 h in a warmed chamber at 31.5° C. Animals were administered 10.4-11.8 MBq 4-[^18F]fluoroglutamine via intravenous injection and imaged using a Concorde Microsystems Focus 220 microPET scanner (Siemens Preclinical Solutions). During imaging, animals were maintained under 2% isoflurane anesthesia in oxygen at 2 L/min and kept warm for the duration of the PET scan. PET images in xenograft-bearing mice were acquired as 60-minute dynamic data sets. […] PET data were reconstructed using a three-dimensional (3D) ordered subset expectation maximization/maximum a posteriori (OSEM3D/MAP) algorithm. […] ASIPro software (Siemens Preclinical Solutions) was used to manually draw 3D regions of interest (ROIs) surrounding the entire tumor volume. 4-[^18F]fluoroglutamine uptake was quantified as the percentage of the injected dose per gram of tissue (% ID/g). Significance was calculated using a t-test in Graphpad Prism. Error is reported as standard deviation (SD).
For in vivo studies, cell-line xenograft tumors were propagated in 6-week old, female athymic nude mice from immortalized cell lines. […] Tumor volumes were measured manually using calipers every third day and quantified using the formula V=W·L·(H/2).

[5] = tested on: human CRC organoids A-007 and A-008; assay: Human CRC organoid viability assay; assay type: cell-based; conditions: V-9302 25 μM or CB-839 35 μM, 96 h
Procedure: Human CRC-derived organoids were prepared as reported method with modification^41. Briefly, specimens from freshly resected tumors were minced and digested with 2 mg/ml type 2 collagenase (Worthington, N.J., USA). Samples were passed through 40 µm filters (Greiner Bio One, NC, USA) and epithelial cells trapped on the filters were embed in Matrigel (Corning, MA, USA) and cultured with advanced DMEM/F12 supplemented with N2 and B27 supplements (Thermo Fischer, MA, USA), 50 ng/ml rhEGF (R&D systems, MN, USA) and 1% antibiotic-antimycotic (Corning). For viability assay, organoids were dissociated by TrypLE express (Thermo Fischer) and suspended in Matrigel. […] After 4 days of culture, images of the organoids in Matrigel were captured and the number of viable cells were quantified with CellTiter Aqueous One Cell Proliferation Assay kit (Promega, WI, USA) and a Synergy 4 plate reader (BioTek, VT, USA). The assay was replicated at least three times, technically and biologically. Significance was calculated using a t-test in Graphpad Prism. Error is reported as standard deviation (SD).

[6] = tested on: pERK in HCC1806 and HT29 cells; assay: AlphaScreen SureFire pERK assay; assay type: cell-based, human; conditions: 48 h
Procedure: Detection of activated ERK in cell lysates was enabled by the AlphaScreen SureFire ERK assay (Perkin Elmer) according to the manufacturers protocol. Cells were plated in 96-well plates for 24 hours prior to the assay.

[7] = tested on: HCC1806 cells; assay: LC3B immunofluorescence; assay type: cell-based, human; conditions: 25 μM, 48 hrs
Procedure: Following treatment, cells were fixed with 70% methanol for 5-10 min. LC3B was visualized with 1:100 primary antibody (anti LC3B, Cell signaling 2775) at 37° C. for 45 min followed by application of 1:600 secondary antibody (Rhodamine Red, Invitrogen R6394) at 37° C. for 30 min and DAPI for 4 min. Images were acquired with a fluorescence microscope at visualized at 40× magnification.

Cc1cccc(COc2ccccc2CN(CCC(N)C(=O)O)Cc2ccccc2OCc2cccc(C)c2)c1 (stereo not drawn) [Compound V-9302]
GSSG levels and ROS [1]: elevated GSSG levels and ROS | half-life ([2]; mouse, whole blood): ~6 h | time to steady-state whole blood concentration [2]: 4 h | number of autophagic vesicles ([3]; HT29 cells, combined with chloroquine (10 μM)): further increased the number of autophagic vesicles | autophagic flux ([3]; single agent): elevated with V-9302 exposure in a concentration-dependent manner | reduction of [18F]-4F-glutamine uptake in tumors [4]: approximately 50% | organoid viability [5]: significantly reduced | pERK (independent biochemical assay) [6]: statistically significant, concentration-dependent decrease in pERK | LC3B, marker of autophagy [7]: elevated LC3B
